# Data from US10093656B2, “Fused-ring or tricyclic aryl pyrimidine compound used as kinase inhibitor” (NANJING SANHOME PHARMACEUTICAL CO., LTD, priority 2015, dated 2018).
# Legend:
# EGFR d746-750/T790M = biological target: T1, EGFR d746-750/T790M (Homo sapiens, UniProt P00533, DEL746-750/T790M); test: EGFR d746-750/T790M enzyme HTRF inhibition assay; type: biochemical; details: 40 μM ATP
# T1 construct: purchased Carna Biosciences (Japan)
# Method: (§1) Enzyme: EGFR wild type, EGFR T790M/L858R, EGFR T790M and INSR were purchased from Life technology (Madison, Wis.), EGFR d746-750/T790M was purchased from Carna Biosciences (Japan).
# (§2) HTRF Kit was purchased from Cis-Bio International which contained the Eu-labeled TK1 antibody, XL665 and biotin-labeled TK1 polypeptide substrates.
# (§3) Detecting instrument: Envision (PerkinElmer).
# (§4) The test compound was diluted 3-fold to obtain 10 doses of which the final concentration was from 300 nM to 0.015 nM.
# EGFR d746-750/T790M Enzyme Reaction Mixture System:
# 0.025 nM EGFR d746-750/T790M, 1 μM biotin-TK1 peptide, 40 μM ATP enzyme buffer, a total of which was 10 μL. The reaction plate was white Proxiplate 384-Plus plate (PerkinElmer) and the mixture was reacted at 23° C. for 60 minutes.
# (§5) Reaction Detection: 10 μL of detection reagent containing Antibody 2 nM and XL665 62.5 nM was added, and the reagent was incubated at 23° C. for 60 minutes. The plates were read by Envision.
# (§6) The reading is converted to the suppression rate (%) by the following formula […]/(Max-Min)*100%. IC50 Data was measured by four-parameter curve fitting (Model 205 in XLFITS, IDBS).
# EGFR T790M/L858R = biological target: T2, EGFR T790M/L858R (Homo sapiens, UniProt P00533, L858R/T790M); test: EGFR T790M/L858R enzyme HTRF inhibition assay; type: biochemical; details: 20 μM ATP, read-out: EGFR L858R/T79M IC50
# T2 construct: purchased Life technology (Madison, Wis.)
# T2 sequence (P00533 25-1210 T790M/L858R): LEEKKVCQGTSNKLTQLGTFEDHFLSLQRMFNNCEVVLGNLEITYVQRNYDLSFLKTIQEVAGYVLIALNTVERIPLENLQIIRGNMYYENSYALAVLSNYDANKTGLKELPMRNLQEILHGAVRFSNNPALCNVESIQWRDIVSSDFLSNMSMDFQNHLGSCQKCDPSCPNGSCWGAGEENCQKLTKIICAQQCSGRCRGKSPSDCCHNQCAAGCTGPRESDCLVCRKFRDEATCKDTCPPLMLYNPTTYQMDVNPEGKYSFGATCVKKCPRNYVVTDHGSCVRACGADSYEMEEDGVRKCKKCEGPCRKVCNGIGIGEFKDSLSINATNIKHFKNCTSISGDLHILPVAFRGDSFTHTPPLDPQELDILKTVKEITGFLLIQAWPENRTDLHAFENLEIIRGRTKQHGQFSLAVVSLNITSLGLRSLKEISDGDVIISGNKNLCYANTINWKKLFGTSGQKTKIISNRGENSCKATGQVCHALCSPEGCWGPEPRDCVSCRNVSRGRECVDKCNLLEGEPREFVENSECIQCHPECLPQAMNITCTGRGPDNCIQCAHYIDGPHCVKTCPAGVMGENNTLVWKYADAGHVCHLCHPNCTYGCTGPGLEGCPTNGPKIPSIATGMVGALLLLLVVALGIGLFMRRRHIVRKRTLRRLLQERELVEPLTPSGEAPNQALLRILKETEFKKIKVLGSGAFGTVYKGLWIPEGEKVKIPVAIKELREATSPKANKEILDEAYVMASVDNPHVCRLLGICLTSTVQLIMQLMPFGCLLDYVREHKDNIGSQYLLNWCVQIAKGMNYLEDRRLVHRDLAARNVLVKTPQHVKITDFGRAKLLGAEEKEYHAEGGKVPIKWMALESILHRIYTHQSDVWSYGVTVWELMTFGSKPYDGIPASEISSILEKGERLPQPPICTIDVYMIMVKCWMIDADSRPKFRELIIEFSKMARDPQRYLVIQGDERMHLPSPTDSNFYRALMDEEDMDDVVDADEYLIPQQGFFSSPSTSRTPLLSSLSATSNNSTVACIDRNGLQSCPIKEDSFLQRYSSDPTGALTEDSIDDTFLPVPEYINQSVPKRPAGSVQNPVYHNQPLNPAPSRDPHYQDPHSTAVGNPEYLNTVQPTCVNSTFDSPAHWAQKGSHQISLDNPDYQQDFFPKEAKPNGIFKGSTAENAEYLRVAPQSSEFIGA
# Method: as §1, §2, §3, §4
# EGFR T790M/L858R Enzyme Reaction Mixture System:
# 0.04 nM EGFR T790M/L858R, 1 μM biotin-TK1 peptide, 20 μM ATP enzyme buffer, a total of which was 10 μL. The reaction plate was white Proxiplate 384-Plus plate (PerkinElmer) and the mixture was reacted at 23° C. for 60 minutes.
# as §5, §6
# [1] = test system: NCI-H1975 cells EGFR L858R/T790M; test: NCI-H1975 cell viability assay (Cell Titer-Glo, 6 days); type: cell-based; details: Homo sapiens, 144 h
# Method: (§7) RPMI1640, fetal bovine serum, penicillin/streptomycin solution were purchased from Life Technology (Madison, Wis.). Cell Titer-Glo luminescent cell viability reagents were purchased from Promega (Madison, Wis.). A431 cell line and NCI-H1975 cell line were purchased from European Collection of Cell Cultures (ECACC). Plate Reader Instrument: Envision (PerkinElmer).
# (§8) 384-Well plates, 300 of A431 cells and NCI-H1975 cells were inoculated per well, a volume of which was 45 μL. And the plates were incubated overnight in a CO2 incubator at 37° C. The test compound was diluted 3-fold to obtain 10 dose concentrations, the final concentrations of which were from 10 μM to 0.508 nM, two wells. The middle plates were filled with 49 μL of medium per well. 1 μL of compound in the gradient dilution compound plates was transferred to the middle plates and mixed well. And then 5 μL liquid in the middle plates was taken to the cell plates. The cells were incubated in a CO2 incubator for 6 days. After 6 days, 25 μL of detection reagents was added. And then the mixture was incubated at room temperature for 10 minutes and the plates were read by Envision.
# (§9) The reading is converted to the suppression rate by the following formula (%) (Max-Sample)/(Max-Min)*100%. IC50 Data was measured by Four-parameter curve fitting (Model 205 in XLFIT5, IDBS).
# A431 cells EGFR WT = test: A431 cell viability assay (Cell Titer-Glo, 6 days); type: cell-based, human; details: for IC50: Homo sapiens, A-431, 144 h, A431 cells, 6 days; for A431:NCI-H1975 (ratio): ratio of cell IC50 A431 to NCI-H1975
# Method: as §7, §8, §9
# EGFR wild type = biological target: T3, EGFR wild type (Homo sapiens, UniProt P00533); test: Wild-type EGFR enzyme HTRF inhibition assay; type: biochemical; details: 25 μM ATP, read-out: EGFR WT IC50
# T3 construct: purchased Life technology (Madison, Wis.)
# T3 sequence (P00533 25-1210): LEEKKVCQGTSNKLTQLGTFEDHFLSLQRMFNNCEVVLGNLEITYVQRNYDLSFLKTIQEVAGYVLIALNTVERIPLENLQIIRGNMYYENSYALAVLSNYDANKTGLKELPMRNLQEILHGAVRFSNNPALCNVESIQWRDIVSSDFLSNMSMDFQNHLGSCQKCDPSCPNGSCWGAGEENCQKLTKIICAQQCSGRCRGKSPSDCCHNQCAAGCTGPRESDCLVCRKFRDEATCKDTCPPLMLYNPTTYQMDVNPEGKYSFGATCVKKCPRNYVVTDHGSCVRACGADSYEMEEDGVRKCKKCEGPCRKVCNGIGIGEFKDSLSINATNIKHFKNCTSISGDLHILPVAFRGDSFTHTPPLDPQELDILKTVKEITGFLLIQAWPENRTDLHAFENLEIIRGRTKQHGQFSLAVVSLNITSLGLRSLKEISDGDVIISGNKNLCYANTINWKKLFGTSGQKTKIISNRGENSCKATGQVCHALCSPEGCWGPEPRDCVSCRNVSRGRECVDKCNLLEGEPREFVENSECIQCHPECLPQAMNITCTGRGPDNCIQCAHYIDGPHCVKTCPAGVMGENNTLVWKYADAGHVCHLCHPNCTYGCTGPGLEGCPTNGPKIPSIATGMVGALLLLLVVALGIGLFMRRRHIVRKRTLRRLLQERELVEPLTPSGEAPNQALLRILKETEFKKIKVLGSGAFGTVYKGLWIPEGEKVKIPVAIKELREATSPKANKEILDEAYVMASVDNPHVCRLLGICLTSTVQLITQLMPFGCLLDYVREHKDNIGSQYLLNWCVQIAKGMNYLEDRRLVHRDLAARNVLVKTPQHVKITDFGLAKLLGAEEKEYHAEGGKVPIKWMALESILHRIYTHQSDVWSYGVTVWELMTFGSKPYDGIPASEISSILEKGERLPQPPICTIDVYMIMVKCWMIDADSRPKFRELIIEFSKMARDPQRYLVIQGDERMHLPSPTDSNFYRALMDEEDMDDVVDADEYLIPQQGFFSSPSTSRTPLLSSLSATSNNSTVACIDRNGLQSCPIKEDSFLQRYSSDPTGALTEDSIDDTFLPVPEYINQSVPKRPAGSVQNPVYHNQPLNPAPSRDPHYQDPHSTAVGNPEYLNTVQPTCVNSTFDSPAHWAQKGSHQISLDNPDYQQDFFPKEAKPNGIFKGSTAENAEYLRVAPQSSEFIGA
# Method: as §1, §2, §3, §4
# Wild-Type EGFR Enzyme Reaction Mixture System:
# 0.05 nM Wild-type EGFR, 1 μM biotin-TK1 peptide, 25 μM ATP enzyme buffer, a total of which was 10 μL. The reaction plate was white Proxiplate 384-Plus plate (PerkinElmer) and the mixture was reacted at 23° C. for 60 minutes.
# as §5, §6
# T1 sequence (P00533 with tags, fused parts or gaps DEL746-750/T790M limits assumed): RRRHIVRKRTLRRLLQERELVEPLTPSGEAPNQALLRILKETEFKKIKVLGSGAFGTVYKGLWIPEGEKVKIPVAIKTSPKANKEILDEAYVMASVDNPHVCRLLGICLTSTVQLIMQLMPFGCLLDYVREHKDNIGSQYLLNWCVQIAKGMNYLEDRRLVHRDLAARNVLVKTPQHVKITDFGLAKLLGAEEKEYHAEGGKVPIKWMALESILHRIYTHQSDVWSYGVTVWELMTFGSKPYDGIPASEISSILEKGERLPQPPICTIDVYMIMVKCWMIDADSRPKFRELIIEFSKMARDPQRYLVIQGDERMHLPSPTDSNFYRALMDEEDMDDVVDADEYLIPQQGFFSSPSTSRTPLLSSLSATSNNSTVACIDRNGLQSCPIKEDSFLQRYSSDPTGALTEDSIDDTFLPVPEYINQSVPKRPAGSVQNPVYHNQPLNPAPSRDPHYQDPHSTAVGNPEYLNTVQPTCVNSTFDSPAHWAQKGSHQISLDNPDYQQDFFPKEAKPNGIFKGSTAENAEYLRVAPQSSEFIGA
SMILES,IC50 (EGFR d746-750/T790M) [nM],IC50 (EGFR T790M/L858R) [nM],IC50 [1] [nM],IC50 (A431 cells EGFR WT) [nM],IC50 (EGFR wild type) [nM],A431:NCI-H1975 (ratio) (A431 cells EGFR WT)
"C=CC(=O)Nc1cc(Nc2nccc(-c3c4n(c5ccccc35)CCCC4)n2)c(OC)cc1N(C)CCN(C)C [Embodiment 15, N-(2-((2-(Dimethylamino)ethyl)(methyl)amino)-4-methoxy-5-((4-(6,7,8,9-tetrahydropyrido[1,2-a]indol-10-yl)pyrimidin-2-yl)amino)phenyl)acrylamide]",0.37,0.36,15,230,1.03,15.3
"C=CC(=O)Nc1cc(Nc2nccc(-c3c4n(c5ccccc35)CCOC4)n2)c(OC)cc1N(C)CCN(CC)CC [Embodiment 16, N-(2-((2-(Diethylamino)ethyl)(methyl)amino)-5-((4-(3,4-dihydro-1H-[1,4]oxazino[4,3-a]indol-10-yl)pyrimidin-2-yl)amino)-4-methoxyphenyl)acrylamide]",0.33,0.29,17,1060,4,63
"C=CC(=O)Nc1cc(Nc2nccc(-c3c4n(c5ccccc35)CCC4)n2)c(OC)cc1N(C)CCCN(C)C [Embodiment 7, N-(5-((4-(2,3-Dihydro-1H-pyrrolo[1,2-a]indol-9-yl)pyrimidin-2-yl)amino)-2-((3-(dimethylamino)propyl)(methyl)amino)-4-methoxyphenyl)acrylamide]",2.59,2.19,496,3720,33,7.5
"C=CC(=O)Nc1cc(Nc2nccc(-c3c4n(c5ccccc35)CCC4=O)n2)c(OC)cc1N(C)CCN(C)C [Embodiment 12, N-(2-((2-(Dimethylamino)ethyl)(methyl)amino)-4-methoxy-5-((4-(1-oxo-2,3-dihydro-1H-pyrrolo[1,2-a]indol-9-yl)pyrimidin-2-yl)amino)phenyl)acrylamide]",0.31,0.33,4.8,369,0.43,76.9
"C=CC(=O)Nc1cc(Nc2nccc(-c3c4n(c5ccccc35)CCC4)n2)c(OC)cc1C#CCN(C)C [Embodiment 8, N-(5-((4-(2,3-Dihydro-1H-pyrrolo[1,2-a]indol-9-yl)pyrimidin-2-yl)amino)-2-(3-(dimethylamino)prop-1-yn-1-yl)-4-methoxyphenyl)acrylamide]",0.64,0.91,474,5460,5.22,11.5
"C=CC(=O)Nc1cc(Nc2ncc(F)c(-c3c4n(c5c(OC)cccc35)CCOC4)n2)c(OC)cc1N(C)CCN(C)C [Embodiment 35, N-(2-((2-(Dimethylamino)ethyl)(methyl)amino)-5-((5-fluoro-4-(6-methoxy-3,4-dihydro-1H-[1,4]oxazino[4,3-a]indol-10-yl)pyrimidin-2-yl)amino)-4-methoxyphenyl)acrylamide]",0.6,1.2,107,971,1.5,9.1
"C=CC(=O)Nc1cc(Nc2nccc(-c3c4n(c5ccccc35)CCC4)n2)c(OC)cc1CN1CCOCC1 [Embodiment 9, N-(5-((4-(2,3-Dihydro-1H-pyrrolo[1,2-a]indol-9-yl)pyrimidin-2-yl)amino)-4-methoxy-2-(morpholinomethyl)phenyl)acrylamide]",0.51,0.75,111,1440,6.28,13.0
"C=CC(=O)Nc1cc(Nc2nccc(-c3c4n(c5ccccc35)CCOC4)n2)c(OC)cc1N(C)CCNC(C)(C)C [Embodiment 24, N-(2-((2-(tert-Butylamino)ethyl)(methyl)amino)-5-((4-(3,4-dihydro-1H-[1,4]oxazino[4,3-a]indol-10-yl)pyrimidin-2-yl)amino)-4-methoxyphenyl)acrylamide]",1.3,1.9,172,2660,36.4,15
"C=CC(=O)Nc1cc(Nc2nccc(-c3cn4c5c(cccc35)OCC(C)(C)C4)n2)c(OC)cc1N(C)CCN(C)C [Embodiment 41, N-(5-((4-(3,3-Dimethyl-3,4-dihydro-2H-[1,4]oxazepino[2,3,4-hi]indol-7-yl)pyrimidin-2-yl)amino)-2-((2-(dimethylamino)ethyl)(methyl)amino)-4-methoxyphenyl)acrylamide]",2.6,1.5,201,1720,4.9,8.5

# Now those with a lower IC50 (EGFR d746-750/T790M), led by results:
IC50 (EGFR d746-750/T790M) [nM],IC50 (EGFR T790M/L858R) [nM],IC50 [1] [nM],IC50 (A431 cells EGFR WT) [nM],IC50 (EGFR wild type) [nM],SMILES,A431:NCI-H1975 (ratio) (A431 cells EGFR WT)
0.26,0.3,29,965,2.7,"C=CC(=O)Nc1cc(Nc2nccc(-c3c4n(c5ccccc35)CCOC4)n2)c(OC)cc1N(CC)CCN(C)C [Embodiment 19, N-(5-((4-(3,4-Dihydro-1H-[1,4]oxazino[4,3-a]indol-10-yl)pyrimidin-2-yl)amino)-2-((2-(dimethylamino)ethyl)(ethyl)amino)-4-methoxyphenyl)acrylamide]",33
0.2,0.1,3,597,0.3,"C=CC(=O)Nc1cc(Nc2ncc(F)c(-c3c4n(c5ccccc35)CCOC4)n2)c(OC)cc1N(C)CC(C)(C)N(C)C [Embodiment 32, N-(5-((4-(3,4-Dihydro-1H-[1,4]oxazino[4,3-a]indol-10-yl)-5-fluoropyrimidin-2-yl)amino)-2-((2-(dimethylamino)-2-methylpropyl)(methyl)amino)-4-methoxyphenyl)acrylamide]",199
0.2,0.23,6.1,270,0.53,"C=CC(=O)Nc1cc(Nc2nccc(-c3c4n(c5ccccc35)CCC4)n2)c(OC)cc1N(C)C(C)CN(C)C (stereo not drawn) [Embodiment 11, N-(5-((4-(2,3-Dihydro-1H-pyrrolo[1,2-a]indol-9-yl)pyrimidin-2-yl)amino)-2-((1-(dimethylamino)propan-2-yl)(methyl)amino)-4-methoxyphenyl)acrylamide]",44.3
0.2,0.2,11,517,1.5,"C=CC(=O)Nc1cc(Nc2nccc(-c3c4n(c5ccccc35)CCOC4)n2)c(OCC)cc1N(C)CCN(C)C [Embodiment 28, N-(5-((4-(3,4-Dihydro-1H-[1,4]oxazino[4,3-a]indol-10-yl)pyrimidin-2-yl)amino)-2-((2-(dimethylamino)ethyl)(methyl)amino)-4-ethoxyphenyl)acrylamide]",47
0.18,0.24,5.4,545,0.65,"C=CC(=O)Nc1cc(Nc2nccc(-c3c4n(c5ccc(F)cc35)CCC4)n2)c(OC)cc1N(C)CCN(C)C [Embodiment 13, N-(2-((2-(Dimethylamino)ethyl)(methyl)amino)-5-((4-(7-fluoro-2,3-dihydro-1H-pyrrolo[1,2-a]indol-9-yl)pyrimidin-2-yl)amino)-4-methoxyphenyl) acrylamide]",101.0
